Measured values from ChEMBL document CHEMBL3286100, “Synthesis and β-glucuronidase inhibitory activity of 2-arylquinazolin-4(3H)-ones” (Bioorg Med Chem, 2014).

Key:
[1] = molecular target: T1, Beta-glucuronidase (Homo sapiens, UniProt P08236); assay: Inhibition of beta-glucuronidase activity (unknown origin) assessed as p-nitrophenol formation after 30 mins using p-nitrophenyl-beta-D-glucuronide as substrate by spectrophotometry
T1 sequence (P08236 whole entry): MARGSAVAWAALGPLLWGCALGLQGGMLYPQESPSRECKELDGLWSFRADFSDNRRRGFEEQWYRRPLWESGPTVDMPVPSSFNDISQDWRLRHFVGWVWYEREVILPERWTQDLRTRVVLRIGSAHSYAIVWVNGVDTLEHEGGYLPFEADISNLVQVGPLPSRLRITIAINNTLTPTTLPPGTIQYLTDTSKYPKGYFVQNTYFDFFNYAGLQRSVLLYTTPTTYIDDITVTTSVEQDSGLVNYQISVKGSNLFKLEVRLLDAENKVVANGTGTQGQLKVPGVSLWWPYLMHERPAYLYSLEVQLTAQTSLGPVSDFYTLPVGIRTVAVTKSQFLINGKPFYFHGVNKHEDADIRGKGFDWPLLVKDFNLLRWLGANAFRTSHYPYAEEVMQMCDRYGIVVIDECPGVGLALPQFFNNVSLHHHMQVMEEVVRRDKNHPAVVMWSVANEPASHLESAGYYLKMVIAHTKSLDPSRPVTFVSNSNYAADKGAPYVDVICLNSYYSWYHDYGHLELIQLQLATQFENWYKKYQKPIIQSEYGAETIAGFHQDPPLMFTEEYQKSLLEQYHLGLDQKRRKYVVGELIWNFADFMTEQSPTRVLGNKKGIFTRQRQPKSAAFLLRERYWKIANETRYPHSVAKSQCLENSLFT

[2] = test system: PC-3; assay: cells; conditions: Homo sapiens, PC-3, 72 h
Description: Cytotoxicity against human PC3 cells after 72 hrs by MTT assay

IC50 [1] [µM]	IC50 [2] [µM]	Compound
	> 30	O=c1[nH]c(-c2ccccc2[N+](=O)[O-])nc2ccccc12
	> 30	O=c1[nH]c(-c2c(O)cccc2Br)nc2ccccc12
	> 30	CCOc1ccccc1-c1nc2ccccc2c(=O)[nH]1
	> 30	O=c1[nH]c(-c2cc(O)ccc2O)nc2ccccc12
10	> 30	O=c1[nH]c(-c2ccccc2O)nc2ccccc12
198	> 30	O=c1[nH]c(-c2cccc(O)c2)nc2ccccc12
	> 30	O=c1[nH]c(-c2ccccc2Cl)nc2ccccc12

Second part, the compound before the results:

Compound	IC50 [1] [µM]	IC50 [2] [µM]
O=c1[nH]c(-c2ccc(O)cc2)nc2ccccc12	22.2	> 30
Cc1ccc(-c2nc3ccccc3c(=O)[nH]2)cc1	173	> 30
COc1ccc(-c2nc3ccccc3c(=O)[nH]2)cc1	1.1	> 30
COc1ccc(-c2nc3ccccc3c(=O)[nH]2)cc1O	2.8	> 30
O=c1[nH]c(-c2ccc([N+](=O)[O-])cc2)nc2ccccc12	20.1	> 30
CCOc1ccc(-c2nc3ccccc3c(=O)[nH]2)cc1		> 30
O=c1[nH]c(-c2c(Cl)cccc2Cl)nc2ccccc12		> 30
O=c1[nH]c(-c2ccc(Cl)cc2)nc2ccccc12		> 30
O=c1[nH]c(-c2ccc(O)c(O)c2)nc2ccccc12		> 30
COc1ccc(O)c(-c2nc3ccccc3c(=O)[nH]2)c1		> 30
CN(C)c1ccc(-c2nc(O)c3ccccc3n2)cc1	5.5	> 30
COc1cc(-c2nc3ccccc3c(=O)[nH]2)cc(OC)c1OC	120	> 30
COc1cccc(-c2nc3ccccc3c(=O)[nH]2)c1O		> 30
CCOc1cc(-c2nc3ccccc3c(=O)[nH]2)ccc1O		> 30
O=c1[nH]c(-c2ccc(Cl)cc2Cl)nc2ccccc12		> 30
O=c1[nH]c(-c2cccc([N+](=O)[O-])c2)nc2ccccc12	50.4	> 30
COc1ccc(-c2nc(O)c3ccccc3n2)cc1OC		> 30
